Data: PubChem BioAssay AID2252 (Southern Research Specialized Biocontainment Screening …, 2010)
Where “and” joins values, the source holds several entries; their conditions need not be identical. Equal values may be shown once.

These molecules were tested on THP-1 viability, CellTiter-Glo luminescence, 72 h (assay: PubChem AID 2252).

SMILES | EC50
COc1cccc(/C=N\NC(=O)Cn2nnc3ccccc32)c1O | 14.6 µM
CN1CC=C(/C=C/c2ccc(-c3ccccc3)cc2)CC1 | 10.5 µM
O=C(NNC(=S)NC(=O)c1ccco1)c1ccc(F)cc1 | 9.47 µM
ON=C1/C(=N\O)CC2(C/C1=N/O)OCCO2 | 33.2 µM
COc1ccc(CNCCc2c[nH]c3ccccc23)c(OC)c1C | 8.57 µM
CNCCCN1c2ccccc2CCc2ccccc21 | 40.4 µM
CS(=O)(=O)c1ccc([C@@H](O)[C@@H](CF)NC(=O)C(Cl)Cl)cc1 | < 0.1 µM
Cc1cc(OCCCCCNCCO)cc(C)c1Cl | 21.2 µM
OCCN1CCN(CCCN2c3ccccc3Sc3ccc(C(F)(F)F)cc32)CC1 | 12.7 µM
Cc1cc(OCC(O)CNC(C)c2ccccc2)ccc1C(C)C (stereo not given) | 13.4 µM
O=C(Nc1nnc(C(F)(F)F)s1)c1ccc(Br)s1 | 22.2 µM
CNc1ccc(SC#N)cc1 | 33.7 µM
O=C(NCCCN1CCOCC1)c1sc2cc(Cl)ccc2c1Cl | 35.8 µM
Cc1ccc(C)c(NC(=O)c2ccccc2O)c1 | 35.1 µM
Nc1nc2ccccc2n1Cc1ccc(Cl)c(Cl)c1 | 31.6 µM
O=C(O)c1csc(-c2ccc(Cl)cc2)n1 | < 0.1 µM
N=c1c2c(n(Cc3ccc(Cl)c(Cl)c3)c3c1CCC3)CCCC2 | 4.66 µM
O=C(NC(=S)NNC(=O)c1ccco1)c1ccc(Br)cc1 | 19.7 µM
NCC/C=C1/c2ccccc2CSc2ccccc21 | 25.9 µM
CCCCOc1ccc(Br)cc1CSC(=N)N | 5.93 µM
O=C(N/N=C\C=C\c1ccc([N+](=O)[O-])o1)c1cccs1 | 34.8 µM
O=C(NC(=S)NNC(=O)c1ccccc1O)c1ccco1 | 17.2 µM

SMILES | EC50
OCCCCNCc1ccc(OCc2ccccc2Cl)cc1 | 34.6 µM
Cc1cccc(OCC(O)Cn2c(=N)n(CCN3CCCCC3)c3ccccc32)c1 (stereo not given) | 16.1 µM
Cc1cc(C)c2c(N)c3ccccc3nc2n1 | 12.4 µM
CCCCCCCCCCOC(=O)Cn1c(COc2ccccc2C)[n+](C)c2ccccc21 | 1.29 µM
CCCCc1ccc2[nH]cc(CCN)c2c1 | 7.81 µM
CC(Nc1nc(N2CCCCC2)nc2ccccc12)c1ccccc1 (stereo not given) | 7.12 µM
CCn1nccc1C(=O)Nc1cc(Cl)cc(Cl)c1 | 37 µM
CC1CCc2cc(F)cc3c(=O)c(C(=O)O)cn1c23 (stereo not given) | < 0.1 µM
CCN(CCCNC(=O)c1cn(CC)c2ccc(S(=O)(=O)N(C)C)cc2c1=O)c1cccc(C)c1 | 34.8 µM
NC1=NC[C@H](Cc2ccc(O)cc2)N1CCc1cccc2ccccc12 | 32.7 µM
CCN1/C(=C/C(C)=C/c2sc3ccccc3[n+]2CC)Sc2ccccc21 | 0.72 µM
Cn1cnc2cc(NC(=O)c3cccs3)ccc21 | < 0.1 µM
COc1ccccc1Nc1nc(NCc2ccco2)c2ccccc2n1 | 13.3 µM
Clc1ccc2c(c1)C(N1CCNCC1)Cc1ccccc1S2 (stereo not given) | 7.4 µM
CC1CC(=O)c2c(cc3c(-c4c(O)cc(O)c5c(O)c6c(cc45)OC(C)CC6=O)c(O)cc(O)c3c2O)O1 (stereo not given) | < 0.1 µM
O=C(CSc1ccccn1)N/N=C/c1cc([N+](=O)[O-])ccc1O | 21.5 µM
C#CCOCCOCCOCCNc1nc(N2CCN(C(=O)CCCCCCCCCCNC(=O)[C@@H](CCSC)n3cc(CCO)nn3)CC2)nc(N2CCN(C(=O)CCCCCCCCCCNC(=O)[C@H]([C@@H](C)CC)n3cc(CCCCCN)nn3)CC2)n1 | 12.9 µM
OCCCCNCc1ccc(OCc2ccc(Cl)cc2Cl)cc1 | 9.8 µM
Cc1cc(N/N=C/c2ccc(F)cc2)nc(NCc2ccccc2)n1 | 22.5 µM
CCOc1ccc(Nc2c3ccccc3nc3ccccc23)cc1 | 2.49 µM
Cc1[nH]c2ccc(OC(F)(F)F)cc2c1CCNCc1ccc(Cl)cc1 | 4.99 µM
O=C(N/N=C/c1ccc([N+](=O)[O-])s1)c1cccnc1 | 14.9 µM

SMILES | EC50
Cc1cc(C2CCCCC2)n(O)c(=O)c1 | 0.63 µM
COc1cc(CNc2ccc(N3CCN(C(C)=O)CC3)cc2)ccc1OCc1ccccc1 | 6.5 µM
O=C(NC(=S)NNC(=O)c1cccs1)c1ccc(Br)o1 | 27.5 µM
Nc1nonc1C(=O)N/N=C/c1cc(Br)ccc1O | 4.18 µM
COc1ccccc1C(C[N+](=O)[O-])c1c(N)n(C)c(=O)n(C)c1=O (stereo not given) | 8.91 µM
OC(CNCCc1ccc(C(F)(F)F)cc1)COC(c1ccccc1)c1ccccc1 (stereo not given) | 15.9 µM
Cc1c(CN(C)C)c2c(n1Cc1ccccc1)C(=O)c1ccc(Br)cc1-2 | 21.1 µM
CCCCCCCCCCCCCCCC[n+]1cccc(C(=O)N(CC)CC)c1 | 0.44 µM
CN1CCN(C2=Cc3ccccc3Sc3cc(F)ccc32)CC1 | 8.09 µM
CCCCCCCCCCC[N+](C)(C)CC/C=C1/c2ccccc2Sc2ccc(Cl)cc21 | 2.58 µM
CSc1ccc2c(c1)N(CCC1CCCCN1C)c1ccccc1S2 (stereo not given) | 13 µM
NC(N)=N/N=C/c1ccc(OCc2ccc(Cl)cc2)cc1 | 5.57 µM
CCCCC(=O)NNC(=S)NC(=O)CCC | 46 µM
c1cnc2c(c1)ccc1cccnc12 | 3.14 µM and 2.97 µM
COc1ccc(CNCC(O)COc2ccc(C(C)(C)c3ccccc3)cc2)cc1 (stereo not given) | 14.7 µM
Cc1ccccc1S(=O)(=O)NNC(=O)C(=O)NNc1ccccn1 | 24.2 µM
Nc1cc2c3c(cccc3c1)C(=O)N(CCN1CCCC1)C2=O | 11.3 µM
O=C(Nc1cccc(Cl)c1)Nc1nccs1 | 33.8 µM
Cc1ccc(-c2nc(C(=O)NCCCN(C)C)cc3c2[nH]c2ccccc23)cc1 | 10.7 µM
CC(NCc1ccc(Cl)c(Cl)c1)C(O)c1ccccc1 (stereo not given) | 30.6 µM
COc1cccc(/C=C/C(=O)c2cccc([N+](=O)[O-])c2)c1OC | 22.3 µM
O=C(CN1C2=NCCN2c2ccccc21)c1ccco1 | < 0.1 µM

SMILES | EC50
Cc1ccc(C)c(N/C(N)=N/c2nc(C)cc(C)n2)c1 | 27 µM
C#CCOCCOCCOCCNc1nc(N2CCN(C(=O)CCCCCCCCCCNC(=O)[C@H](CCCCN)n3cc(C)nn3)CC2)nc(N2CCN(C(=O)CCCCCCCCCCNC(=O)[C@H](CCCN=C(N)N)n3cc(C[C@@H](C)CC)nn3)CC2)n1 | 5.13 µM
O=C(N/N=C/c1sc2ccccc2c1O)c1cccc2ccccc12 | 2.58 µM
CCCCCN=C(N)N/N=C/c1c[nH]c2ccc(OC)cc12 | 2.57 µM
COc1ccc(/C=N/Nc2cc(C)nc3ccc(Br)cc23)cc1 | 4.17 µM
CC(=O)c1cc(O)c2ccccc2c1O | 41.2 µM
CCN(CCC(=O)Nc1ccc(Br)c(C)c1)Cc1ccccc1 | 13.8 µM
COc1ccc(Cc2nnc(N/N=C/c3ccc(O)cc3)[nH]c2=O)cc1OC | 0.57 µM
CC[C@H]1OC(=O)C[C@@H](O)[C@H](C)[C@@H](O[C@@H]2O[C@H](C)C[C@H](N(C)C)[C@H]2O)[C@@H](CC=O)C[C@@H](C)C(=O)C=C[C@]2(C)O[C@H]2[C@@H]1C | 12.2 µM
Brc1ccc2c(c1)C(OC1CN3CCC1CC3)c1ccccc1CS2 (stereo not given) | 8.31 µM
CN1C(=O)/C(=C/c2cccc(Cl)c2)Sc2ccc(C(=O)N3CCCC3)cc21 | 21.1 µM
Cc1ccc(-n2c(Cc3noc4ccccc34)n[nH]c2=S)cc1 | < 0.1 µM
N=C1c2ccccc2CN1c1ncccn1 | < 0.1 µM
CCCCCCC[N+](CC)(CC)CCCCc1ccc(Cl)cc1 | 3.22 µM
Cc1cc(=O)[nH]c(-n2nc(C)cc2C)n1 | 27.8 µM
Oc1ccccc1C(Nc1nccs1)c1ccc2cccnc2c1O (stereo not given) | 2.11 µM
CC1=C([N+](=O)[O-])C(c2ccccc2)C2=C(N1)c1ccccc1C2=O (stereo not given) | 1.01 µM
Cc1ccc(OCC(=O)N/N=C\c2c(C)[nH]n(-c3ccccc3)c2=O)c([N+](=O)[O-])c1 | 6.86 µM
Cn1cc(C(=O)N/N=C/C(Br)=C/c2ccccc2)ccc1=O | 14.5 µM
